Test results reported in patent publication US20050069522A1, “Combination pharmaceutical agents as inhibitors of HCV replication” (priority 2002, published 2005).
pEC50: −log10 of the molar value.

These compounds were tested on HCV replicon (HCV 1b-377-neo replicon cells) (assay: HCV replicon cell line FRET assay). Settings: Hepatitis C virus; HCV replicon cell line, FRET assay; read-out: Replicon Inhibition Range EC50.
Format: cell-based

`C[C@H](NC(=O)OCc1ccccc1)C(=O)Nc1ccc(C2S/C(=N\c3ccc(F)c(C(F)(F)F)c3)N(Cc3ccco3)C2=O)cc1` (some centres unmarked) [Compound 68] and `C[C@H](NC(=O)OCc1ccccc1)C(=O)Nc1ccc(C2S/C(=N\c3ccc(F)c(Cl)c3)N(Cc3ccco3)C2=O)cc1` (some centres unmarked) [Compound 52] fall in the same range of pEC50: 5.30 to 6.00 for the first, 5.30 to 6.00 for the second.

`O=C(Nc1ccc(C2S/C(=N\c3ccc(N4CCOCC4)cc3)N(Cc3ccccn3)C2=O)cc1)[C@@H]1CCCN1C(=O)C(F)c1ccccc1` (some centres unmarked) [Compound 110] and `C[C@H](C(=O)N1CCC[C@H]1C(=O)Nc1ccc(C2S/C(=N\c3ccc(N4CCOCC4)cc3)N(Cc3ccccn3)C2=O)cc1)c1ccccc1` (some centres unmarked) [Compound 114] cannot be ordered by pEC50: over 7.00 for the first, over 7.00 for the second.

First: CN1C(=O)C(c2ccc(NC(=O)[C@@H]3CCCN3C(=O)OCc3ccccc3)cc2)S/C1=N\Cc1ccccn1 (some centres unmarked) [Compound 87]
Second: CN=C1SC(c2ccc(NC(=O)[C@@H]3CCCN3C(=O)OCc3ccccc3)cc2)C(=O)N1Cc1ccccn1 (some centres unmarked) [Compound 85]
The pEC50 of the first is lower: 6.00 to 7.00 for the first, over 7.00 for the second. The second is the more potent here.

`Cc1cc(F)ccc1/N=C1\SC(c2ccc(NC(=O)[C@H](C)NC(=O)OCc3ccccc3)cc2)C(=O)N1Cc1ccco1` (some centres unmarked) [Compound 58] and `C[C@H](NC(=O)OCc1ccccc1)C(=O)Nc1ccc(C2S/C(=N\c3ccc(F)cc3Cl)N(Cc3ccco3)C2=O)cc1` (some centres unmarked) [Compound 60] fall in the same range of pEC50: 5.30 to 6.00 for the first, 5.30 to 6.00 for the second.

First: COc1ccc(CCN2C(=O)C(c3ccc(NC(=O)[C@H](C)NC(=O)OCc4ccccc4)cc3)S/C2=N\c2cccc(F)c2)cc1OC (some centres unmarked) [Compound 28]
Second: C[C@H](NC(=O)OCc1ccccc1)C(=O)Nc1ccc(C2S/C(=N\c3cccc(F)c3)N(CCc3cccs3)C2=O)cc1 (some centres unmarked) [Compound 24]
The pEC50 of the first is lower: 5.30 to 6.00 for the first, 6.00 to 7.00 for the second. The second is the more potent here.

`COc1ccc(CC(=O)N2CCC[C@H]2C(=O)Nc2ccc(C3S/C(=N\c4ccc(N5CCOCC5)cc4)N(Cc4ccccn4)C3=O)cc2)cc1` (some centres unmarked) [Compound 106] and `CN(C)c1ccc(CC(=O)N2CCC[C@H]2C(=O)Nc2ccc(C3S/C(=N\c4ccc(N5CCOCC5)cc4)N(Cc4ccccn4)C3=O)cc2)cc1` (some centres unmarked) [Compound 103] fall in the same range of pEC50: 6.00 to 7.00 for the first, 6.00 to 7.00 for the second.

Compared with `C[C@H](NC(=O)OCc1ccccc1)C(=O)Nc1ccc(C2S/C(=N\c3cccnc3)N(Cc3cccc(F)c3)C2=O)cc1` (some centres unmarked) [Compound 76], `C[C@H](NC(=O)OCc1ccccc1)C(=O)Nc1ccc(C2S/C(=N\c3cccc(F)c3)N(Cc3ccc(OC(F)(F)F)cc3)C2=O)cc1` (some centres unmarked) [Compound 23] is lower in pEC50: over 7.00 for the first, 5.30 to 6.00 for the second. The first is the more potent here.

First: CCC(C)c1ccc(/N=C2\SC(c3ccc(NC(=O)[C@H](C)NC(=O)OCc4ccccc4)cc3)C(=O)N2Cc2ccco2)cc1 (some centres unmarked) [Compound 46]
Second: C[C@H](NC(=O)OCc1ccccc1)C(=O)Nc1ccc(C2S/C(=N\c3cccc(Cl)c3)N(Cc3ccco3)C2=O)cc1 (some centres unmarked) [Compound 54]
The pEC50 of the first is lower: 5.30 to 6.00 for the first, 6.00 to 7.00 for the second. The second is the more potent here.

`O=C(Nc1ccc(C2S/C(=N\c3ccc(N4CCOCC4)cc3)N(Cc3ccccn3)C2=O)cc1)[C@@H]1CCCN1C(=S)NCc1ccccc1` (some centres unmarked) [Compound 136] and `O=C(C(=O)N1CCC[C@H]1C(=O)Nc1ccc(C2S/C(=N\c3ccc(N4CCOCC4)cc3)N(Cc3ccccn3)C2=O)cc1)c1ccccc1` (some centres unmarked) [Compound 119] cannot be ordered by pEC50: over 7.00 for the first, over 7.00 for the second.

Compared with `O=C(Nc1ccc(C2S/C(=N\c3cccc(F)c3)N(Cc3cccnc3)C2=O)cc1)[C@@H]1CCCN1C(=O)OCc1ccccc1` (some centres unmarked) [Compound 15], `O=C(Nc1ccc(C2S/C(=N\c3cccc(F)c3)N(Cc3ccccc3)C2=O)cc1)[C@@H]1CCCN1C(=O)OCc1ccccc1` (some centres unmarked) [Compound 16] is lower in pEC50: over 7.00 for the first, 6.00 to 7.00 for the second.

`C[C@H](NC(=O)c1ccccc1)C(=O)Nc1ccc(C2S/C(=N\c3cccc(F)c3)N(Cc3ccco3)C2=O)cc1` (some centres unmarked) [Compound 126] and `C[C@H](NC(=O)Nc1ccccc1)C(=O)Nc1ccc(C2S/C(=N\c3cccc(F)c3)N(Cc3ccco3)C2=O)cc1` (some centres unmarked) [Compound 134] fall in the same range of pEC50: 5.30 to 6.00 for the first, 5.30 to 6.00 for the second.

`COc1ccc(C(F)(F)F)cc1/N=C1\SC(c2ccc(NC(=O)[C@H](C)NC(=O)OCc3ccccc3)cc2)C(=O)N1Cc1ccco1` (some centres unmarked) [Compound 50] and `C[C@H](NC(=O)OCc1ccccc1)C(=O)Nc1ccc(C2S/C(=N\c3cccc(OC(F)(F)F)c3)N(Cc3ccco3)C2=O)cc1` (some centres unmarked) [Compound 56] fall in the same range of pEC50: 6.00 to 7.00 for the first, 6.00 to 7.00 for the second.

Compared with `C[C@H](NC(=O)OCc1ccccc1)C(=O)Nc1ccc(C2S/C(=N\c3cc(F)cc(F)c3)N(Cc3ccco3)C2=O)cc1` (some centres unmarked) [Compound 43], `C[C@H](NC(=O)OCc1ccccc1)C(=O)Nc1cccc(C2S/C(=N\c3cccc(F)c3)N(Cc3ccco3)C2=O)c1` (some centres unmarked) [Compound 32] is lower in pEC50: 6.00 to 7.00 for the first, 5.30 to 6.00 for the second.

Compared with `N#Cc1cccc(/N=C2\SC(c3ccc(NC(=O)[C@@H]4CCCN4C(=O)OCc4ccccc4)cc3)C(=O)N2Cc2ccco2)c1` (some centres unmarked) [Compound 47], `O=C(Nc1ccc(C2S/C(=N\c3cccc(Cl)c3)N(Cc3ccco3)C2=O)cc1)[C@@H]1CCCN1C(=O)OCc1ccccc1` (some centres unmarked) [Compound 53] is lower in pEC50: over 7.00 for the first, 6.00 to 7.00 for the second.

First: O=C(Nc1ccc(C2S/C(=N\c3cccc(F)c3)N(Cc3ccco3)C2=O)cc1)[C@@H]1CCC(=O)N1C(=O)OCc1ccccc1 (some centres unmarked) [Compound 8]
Second: O=C(Nc1ccc(C2S/C(=N\c3cccc(F)c3)N(Cc3ccco3)C2=O)cc1)[C@@H]1CCCN1C(=O)OCc1ccccc1 (stereo partly drawn) [Compound 2, 2S-{4-[2-(3-fluorophenylimino)-3-furan-2ylmethyl-4-oxo-thiazolidin-5yl]-phenylcarbamoyl}pyrrolidine-1-carboxylic acid benzyl ester]
The pEC50 of the first is higher: 6.00 to 7.00 for the first, under 5.30 for the second.

`O=C(Nc1ccc(C2S/C(=N\c3ccc(N4CCOCC4)cc3)N(Cc3ccccn3)C2=O)cc1)[C@@H]1CCC(=O)N1C(=O)OCc1ccccc1` (some centres unmarked) [Compound 88] and `C[C@@H](C(=O)N1CCC[C@H]1C(=O)Nc1ccc(C2S/C(=N\c3ccc(N4CCOCC4)cc3)N(Cc3ccccn3)C2=O)cc1)c1ccccc1` (some centres unmarked) [Compound 115] cannot be ordered by pEC50: over 7.00 for the first, over 7.00 for the second.

First: C[C@H](NC(=O)Cc1ccccc1)C(=O)Nc1ccc(C2SC3=Nc4ccccc4CN3C2=O)cc1 (some centres unmarked) [Compound 137]
Second: C[C@H](NC(=O)OCc1ccccc1)C(=O)Nc1ccc(C2SC3=Nc4ccccc4CN3C2=O)cc1 (some centres unmarked) [Compound 138]
The pEC50 of the first is higher: 6.00 to 7.00 for the first, 5.30 to 6.00 for the second.

`CC(C)/N=C1\SC(c2ccc(NC(=O)[C@H](C)NC(=O)Cc3ccccc3)cc2)C(=O)N1Cc1ccccn1` (some centres unmarked) [Compound 102] and `CC(C)/N=C1\SC(c2ccc(NC(=O)[C@H](C)NC(=O)[C@@H](O)c3ccccc3)cc2)C(=O)N1Cc1ccccn1` (some centres unmarked) [Compound 120] cannot be ordered by pEC50: over 7.00 for the first, over 7.00 for the second.

`C[C@H](NC(=O)C(c1ccccc1)c1ccccc1)C(=O)Nc1ccc(C2S/C(=N\c3ccc(N4CCOCC4)cc3)N(Cc3ccccn3)C2=O)cc1` (some centres unmarked) [Compound 112] and `C[C@H](NC(=O)Cc1ccccc1)C(=O)Nc1ccc(C2S/C(=N\c3ccc(N4CCOCC4)cc3)N(Cc3ccccn3)C2=O)cc1` (some centres unmarked) [Compound 99] cannot be ordered by pEC50: over 7.00 for the first, over 7.00 for the second.

`C[C@H](NC(=O)CCc1ccccc1)C(=O)Nc1ccc(C2S/C(=N\c3cccc(F)c3)N(Cc3ccco3)C2=O)cc1` (some centres unmarked) [Compound 125] and `Cc1ccc(/N=C2\SC(c3ccc(NC(=O)[C@H](C)NC(=O)OCc4ccccc4)cc3)C(=O)N2Cc2ccco2)c(Cl)c1` (some centres unmarked) [Compound 41] fall in the same range of pEC50: 5.30 to 6.00 for the first, 5.30 to 6.00 for the second.

`O=C(Nc1ccc(C2S/C(=N\c3ccc(N4CCOCC4)cc3)N(Cc3ccncc3)C2=O)cc1)[C@@H]1CCCN1C(=O)OCc1ccccc1` (some centres unmarked) [Compound 83] and `Cc1cnc(CN2C(=O)C(c3ccc(NC(=O)[C@@H]4CCCN4C(=O)OCc4ccccc4)cc3)S/C2=N\c2ccc(N3CCOCC3)cc2)cn1` (some centres unmarked) [Compound 70] cannot be ordered by pEC50: over 7.00 for the first, over 7.00 for the second.

Compared with `CN=C1SC(c2ccc(NC(=O)[C@H](C)NC(=O)OCc3ccccc3)cc2)C(=O)N1Cc1ccccn1` (some centres unmarked) [Compound 84], `C/N=C1\SC(c2ccc(NC(=O)[C@@H]3CCCN3C(=O)Cc3ccccc3)cc2)C(=O)N1Cc1ccccn1` (some centres unmarked) [Compound 101] is higher in pEC50: 6.00 to 7.00 for the first, over 7.00 for the second. The second is the more potent here.

Compared with `O=C(Nc1ccc(C2S/C(=N\c3cccc4ccncc34)N(Cc3ccco3)C2=O)cc1)[C@@H]1CCCN1C(=O)OCc1ccccc1` (some centres unmarked) [Compound 11], `CCc1cccc(/N=C2\SC(c3ccc(NC(=O)[C@@H]4CCCN4C(=O)OCc4ccccc4)cc3)C(=O)N2Cc2ccco2)c1` (some centres unmarked) [Compound 36] is lower in pEC50: over 7.00 for the first, 5.30 to 6.00 for the second.

Compared with `O=C(Nc1ccc(C2S/C(=N\c3ccc(N4CCOCC4)cc3)N(Cc3ccccn3)C2=O)cc1)[C@@H]1CCCN1C(=O)C1(c2ccccc2)CC1` (some centres unmarked) [Compound 118], `O=C(Nc1ccc(C2S/C(=N\c3ccc(N4CCOCC4)cc3)N(Cc3ccccn3)C2=O)cc1)[C@@H]1CCCN1C(=O)Cc1ccc(C(F)(F)F)cc1` (some centres unmarked) [Compound 109] is lower in pEC50: over 7.00 for the first, 5.30 to 6.00 for the second. The first is the more potent here.

First: O=C(Nc1cccc(C2S/C(=N\c3cccc(F)c3)N(Cc3ccco3)C2=O)c1)[C@@H]1CCCN1C(=O)OCc1ccccc1 (some centres unmarked) [Compound 33]
Second: COc1ccc(/N=C2\SC(c3ccc(NC(=O)[C@@H]4CCCN4C(=O)OCc4ccccc4)cc3)C(=O)N2Cc2ccco2)cc1F (some centres unmarked) [Compound 65]
The pEC50 of the first is lower: 5.30 to 6.00 for the first, over 7.00 for the second. The second is the more potent here.

Compared with `O=C(Nc1ccc(C2S/C(=N\c3cccc(F)c3)N(Cc3ccccn3)C2=O)cc1)[C@@H]1CCCN1C(=O)OCc1ccccc1` (some centres unmarked) [Compound 3], `O=C(Nc1ccc(C2S/C(=N\c3cccc(F)c3)N(CCOc3ccccc3)C2=O)cc1)[C@@H]1CCCN1C(=O)OCc1ccccc1` (some centres unmarked) [Compound 17] is lower in pEC50: over 7.00 for the first, 5.30 to 6.00 for the second. The first is the more potent here.

First: COc1cccc(CN2C(=O)C(c3ccc(NC(=O)[C@@H]4CCCN4C(=O)OCc4ccccc4)cc3)S/C2=N\c2cccc(F)c2)c1 (some centres unmarked) [Compound 13]
Second: O=C(Nc1ccc(C2S/C(=N\c3cccc(F)c3)N(Cc3ccc(OC(F)(F)F)cc3)C2=O)cc1)[C@@H]1CCCN1C(=O)OCc1ccccc1 (some centres unmarked) [Compound 19]
The pEC50 of the first is higher: 6.00 to 7.00 for the first, 5.30 to 6.00 for the second. The first is the more potent here.

`O=C(Nc1ccc(C2S/C(=N\c3cccc(F)c3)N(CC3CCCO3)C2=O)cc1)[C@@H]1CCCN1C(=O)OCc1ccccc1` (some centres unmarked) [Compound 14] and `O=C(Nc1ccc(C2S/C(=N\c3ccc4c(c3)OCCO4)N(Cc3ccco3)C2=O)cc1)[C@@H]1CCCN1C(=O)OCc1ccccc1` (some centres unmarked) [Compound 63] cannot be ordered by pEC50: over 7.00 for the first, over 7.00 for the second.

`CC(C)(C)/N=C1\SC(c2ccc(NC(=O)[C@@H]3CCCN3C(=O)OCc3ccccc3)cc2)C(=O)N1Cc1ccccn1` (some centres unmarked) [Compound 89] and `COc1ccc(/N=C2\SC(c3ccc(NC(=O)[C@@H]4CCCN4C(=O)OCc4ccccc4)cc3)C(=O)N2Cc2ccco2)cn1` (some centres unmarked) [Compound 44] fall in the same range of pEC50: 6.00 to 7.00 for the first, 6.00 to 7.00 for the second.

`C[C@H](NC(=O)OCc1ccccc1)C(=O)Nc1ccc(C2S/C(=N\c3ccc(N4CCOCC4)cc3)N(Cc3cccnc3)C2=O)cc1` (some centres unmarked) [Compound 80] showed a pEC50 of 6.00 to 7.00.
